# Test results from patent US20240382610A1 (priority 2021, published 2024).
# Columns and labels:
# [1] = tested on: CD19+ B cells; assay: Free CpG activity on CD40 expression by CD19+ B cells in human PBMCs; type: cell-based; settings: PBMC from three donors (D559, D804, D643)
# Experimental: Trima residuals were received from Vitalant and diluted 1:2 with Phosphate Buffered Saline (PBS, Gibco). Diluted blood was split into two tubes and underplayed with 15 mL Ficoll-Paque (GE Healthcare). Tubes were centrifuged for 30 minutes at 400×g. PBMCs were collected from the interface, resuspended and washed in FACS buffer (PBS with 0.5% Bovine Serum Albumin (Gibco)). After one wash, PBMCs were resuspended in Complete RPMI (RPMI+10% FBS).
# PBMCs were immediately plated onto a 96-well format (500K/well) in Complete RPMI. Five-fold serial dilutions were added to the cells from 1 uM to […] of CpG oligonucleotides at 37° C. under 5% CO2 for 48 hours. Cells were pelleted by centrifugation for five minutes at 400×g and stained at 4° C. in Fixable Viability Dye eFluor 780 (Thermo Fisher) diluted 1:4000 in PBS. Cells were centrifuged and stained at 4° C. in FACS buffer for 30 minutes containing FcR Blocking Reagent (Miltenyi Biotec), anti-CD19, anti-CD20, anti-CD40, anti-HLADR and anti-CD80. Cells were centrifuged and washed twice in FACS buffer and fixed in 0.5% paraformaldehyde. Cells were analyzed on Attune NxT Flow Cytometer (Thermo Fisher), with subsequent data analysis by Flowjo 10.7 (Treestar). Dead cells were excluded by gating on the eFluor 780-negative population. B cells were identified as CD19^+CD20^+cells and level of activation marker was assessed by median fluorescent intensity. […]
# [2] = tested on: DLD-1 nectin-4 tumor cells; type: cell-based, human
# [3] = tested on: Ramos-Blue Cells NF-kB/AP-1 Reporter B lymphocytes; assay: Ramos NFkb Reporter Assay; type: cell-based; settings: 24 h stimulation, OD655
substance,measurement,setting,value
"CpG 7-7: ""CpG 7-7 (7-7b; SEQ ID NO:35)"", free CpG oligonucleotide of series 7 (DNA NCGTCGTGTCGTTT; modified_base 1 OTHER; 5-Bromo-2'-deoxyuridine; modified_base 1..4 OTHER; phosphorothioate linkages; modified_base 4..5 OTHER; phosphotriester linker-PEG24-NH2; modified_base 5..9 OTHER; modified_base 9..10 OTHER; phosphorodithioate linkage; modified_base 10..14 OTHER; modified_base 13..14 OTHER; 2'-O-methyl-thymidine; misc_feature 14 3' spacer)",activity as observed by CD40 expression,[1],higher activities
same,phagocytosis of DLD-1 nectin-4 tumor cells by macrophages,[2],did not appear to result in detectable phagocytosis
same,activity in NFkb reporter assay,[3],significantly higher activity
